The text below walks through data of US7053069B2, “Pharmaceutical compositions and methods of using C-21 modified epothilone derivatives” (Bristol-Myers Squibb Company, priority 2002, dated 2006).

Structures are written as SMILES.

Series [1] is described as follows: Aqueous solubility / formulation without surfactants. Type of series: physicochemical. The protocol: The epothilones of formula Ic may be formulated without the use of surfactants to a concentration of about at least 20 mg/mL with pH adjustment. If formulations containing a surfactant are desired, the lyophilized epothilone analogs represented by formula I, Ia, Ib and Ic are reconstituted with a mixture of equal parts by volume of Dehydrated Alcohol, USP and a nonionic surfactant, preferably a polyoxyethylated castor oil surfactant (available from GAF Corporation, Mount Olive, N.J., under the trademark, Cremophor EL). Alternately, an oral suspension can be prepared by pH adjustment and the use of a stabilizer, surfactant, and/or viscosity enhancing agent, and may be administered alone or with water or with a pharmaceutically acceptable acid neutralizing buffer.

Series [2] deals with taxane-sensitive and taxane-resistant tumor models. As to the kind of experiment: Anticancer activity in tumor models.
Series [3] can be described thus: Clinical pharmacokinetics, 15-minute infusion once every three weeks. The class given is in vivo, human. The protocol:
(§1) Compound A was administered to human patients once every three (3) weeks as a 15-minute infusion, using an accelerated followed by modified Fibonacci dose escalation design. Twenty-two (22) patients were treated at does levels of 0.6, 1.2, 2.5, 5, 10, 20, 30 and 40 mg/m^2.

The nature of series [4]: Degradation of drug during solution preparation and lyophilization. The class given is physicochemical. The conditions noted are these: dissolution at about 5° C., pH 6.0, lyophilization at −15° C. 34 hours, drying at 25° C. 24 hours. The protocol:
[1S-[1R*,3R*(E),7R*,10S*,11R*,12R*,16S*]]-3-[2-[2-(Aminomethyl)-4-thiazolyl]-1-methylethenyl]-7,11-dihydroxy-8,8,10,12,16-pentamethyl-4,17-dioxabicyclo[14.1.0]heptadecane-5,9-dione (compound of formula Ic) (8.7 g) was dissolved in 1280 mL of an aqueous solution of citric acid (10.1 grams) and dextran 40 (80 grams) which had been pre-cooled to about 5° C. Once the drug powder had become completely dissolved, the solution pH was adjusted to 6.0 and Water for Injection (178 mL) was added.
The solution formed above was promptly lyophilized in a Virtis Genesis(TM) lyophilizer at −15° C. with exclusion of light over a period of 34 hours. The resultant lyophile was then further dried at 25° C. under high vacuum for 24 hours. […] The lyophile was packaged under clean conditions into 15 mL vials, each containing 10 mg of drug plus a 10% excess to allow for transfer and dispensing (vial/needle/syringe, VNS) losses.

A short description of series [5]: Clinical toxicity in dose escalation study. Type of series: in vivo. The conditions noted are these: human patients. The protocol:
as §1

Series [6] in a line: Stability of aqueous solution, time for 5% drug loss (t95). The class given is physicochemical. The conditions noted are these: 37° C. From the text: Administering one or more epothilones of formula I, Ia, Ib or Ic, or a pharmaceutically acceptable salt, solvate, clathrate, hydrate, or prodrug thereof, in combination with a pharmaceutically acceptable acid neutralizing buffer provides increased bioavailability of the one or more epothilones of formula I, Ia, Ib or Ic. Without being limited by theory, it is believed that the increased bioavailability is due, at least in significant part, to the buffer decreasing the rate of decomposition of the epothilones of formula I, Ia, Ib or Ic, or a pharmaceutically acceptable salt, solvate, clathrate, hydrate, or prodrug thereof, in the acidic environment of the stomach. Certain epothilones, including the epothilone of formula Ic, are unstable in acidic aqueous environments and decompose, presumably by an acid catalyzed hydrolytic opening of the epoxide ring. For example, the time for 5% drug loss (t95) at 37° C. for an aqueous solution of Compound A (epothilone of formula Ic) is approximately 14 h at pH 7, but <0.2 hours at pH 2.5. Thus, when epothilones of formula I, Ia, Ib or Ic, or a pharmaceutically acceptable salt, solvate, clathrate, hydrate, or prodrug thereof, are orally administered they decompose in the stomach of the patient such that they are either minimally absorbed or not absorbed by the gastrointestinal tract.

Where [7] appears, read: human, 30 mg/m^2, cycle 1, mean, n=7.
Setting [8] is: plasma, intravenous, 30 mg/m2, human, 30 mg/m^2, cycle 1, mean, n=7.

In the case of `C/C(=C\c1csc(CN)n1)[C@@H]1C[C@@H]2O[C@]2(C)CCC[C@H](C)[C@H](O)[C@@H](C)C(=O)C(C)(C)[C@@H](O)CC(=O)O1` [Compound A, [1S-[1R*,3R*(E),7R*,10S*,11R*,12R*,16S*]]-3-[2-[2-(aminomethyl)-4-thiazolyl]-1-methylethenyl]-7,11-dihydroxy-8,8,10,12,16-pentamethyl-4,17-dioxabicyclo[14.1.0]heptadecane-5,9-dione], the aqueous solubility result in series [1] was “water soluble”. In addition, the “concentration formulated without surfactants” value in series [1] (with pH adjustment) is given as “at least 20 mg/mL”. Further, the anticancer activity entry in series [2] was “demonstrated anticancer activity”. Also, in series [3] (four of the seven patients in the 30 mg/m2 cohort), the “time plasma concentrations near or above the preclinically determined effective concentration (MEC)” value is “about 8 hours”. Besides, the “increases in AUC and CMAX” value in series [3] (human patients, 0.6 to 40 mg/m^2, preliminary pharmacokinetics) was “dose-related”. Moreover, in series [3] (setting [7]), the C1t was 282 mL/min/m^2 and the Vss was 494 L/m^2. In series [3] (setting [8]), this compound had an exposure (AUC) of 2100 ng·h/mL, a Cmax of 3430 ng/mL and a half-life of 33 h. Also, in series [4], the “degradation of the drug” value is on record as “No detectable degradation”. Besides, the related toxicities result in series [5] is “diarrhea, nausea, vomitting, anorexia, fatigue, anemia, alopecia, neuropathy, myalgia and neutropenia”. For the same compound, the “dose-limiting toxicity (DLT)” value in series [5] (0.6 to 40 mg/m^2) is on record as “No dose-limiting toxicity (DLT) was observed”. Also, in series [6] (pH 2.5), the “time for 5% drug loss (t95)” value is under 0.2 h. The “time for 5% drug loss (t95)” value in series [6] (pH 7) is reported as “approximately 14 h”.

The term AUC denotes the area under the concentration-time curve, a measure of exposure. High values mean more exposure, low ones less exposure. What is called Cmax is the peak of the concentration-time curve. A word on the half-life: it is the time in which the quantity being followed falls by half. A higher half-life goes with slow loss.
